Assay results published in patent US5753617A, “Peptide inhibitors of cellular adhesion” (Centocor, Inc., priority 1995, dated 1998).
Where a SMILES comes first, the peptide text is derived from it. Bridges are numbered along the chain shown (N, C = ends). [ ]: non-standard residue; d: D form. 2Nal = N[C@@H](Cc1ccc2ccccc2c1)C(=O)O; d2Nal = N[C@H](Cc1ccc2ccccc2c1)C(=O)O; Tic = O=C(O)[C@@H]1Cc2ccccc2CN1; dPen = CC(C)(S)[C@@H](N)C(=O)O

The compounds below were run against T1, P-selectin (Homo sapiens, UniProt P16109) (assay: Inhibition of human neutrophil adhesion to purified P-selectin immobilized on plastic wells). Conditions: inhibiting the binding of human neutrophils to P-selectin.
T1 construct: P-selectin is isolated from human platelet lysates; from tissue; host or cells: human platelets (outdated platelet packs from a blood bank)
T1 sequence (P16109 42-830): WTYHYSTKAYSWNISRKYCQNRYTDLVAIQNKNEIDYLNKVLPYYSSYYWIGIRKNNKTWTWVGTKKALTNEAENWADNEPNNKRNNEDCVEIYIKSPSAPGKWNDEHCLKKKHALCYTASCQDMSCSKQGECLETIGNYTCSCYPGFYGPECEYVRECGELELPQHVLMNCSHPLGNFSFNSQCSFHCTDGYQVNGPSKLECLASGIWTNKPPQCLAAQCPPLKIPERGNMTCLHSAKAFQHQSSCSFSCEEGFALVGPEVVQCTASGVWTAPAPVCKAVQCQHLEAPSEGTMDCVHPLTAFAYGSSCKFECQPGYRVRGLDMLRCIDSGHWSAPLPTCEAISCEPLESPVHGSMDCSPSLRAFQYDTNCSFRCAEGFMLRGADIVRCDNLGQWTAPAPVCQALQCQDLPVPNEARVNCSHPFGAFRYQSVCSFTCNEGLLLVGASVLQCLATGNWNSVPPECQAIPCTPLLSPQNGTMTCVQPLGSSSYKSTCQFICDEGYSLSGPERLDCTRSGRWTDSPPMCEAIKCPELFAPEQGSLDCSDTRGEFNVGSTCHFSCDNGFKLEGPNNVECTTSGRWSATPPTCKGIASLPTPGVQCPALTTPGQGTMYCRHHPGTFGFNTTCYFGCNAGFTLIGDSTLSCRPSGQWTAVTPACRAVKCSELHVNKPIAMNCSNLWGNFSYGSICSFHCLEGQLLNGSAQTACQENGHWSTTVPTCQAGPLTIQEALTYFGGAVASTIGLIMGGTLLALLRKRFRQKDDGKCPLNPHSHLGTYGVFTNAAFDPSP
Format: cell-based
Summary of the method: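 Isolated human neutrophils (2×10^5 per well) in HBSS with Ca2+/Mg2+ and HSA added to wells coated overnight at 4° C with platelet-derived P-selectin (5 micrograms/mL), HSA-blocked; 20 min at 22° C. Nonadherent cells removed by inverted centrifugation at 150 g; adherent cells quantified by myeloperoxidase activity.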

Compound | IC50 [µM]
CC(C)[C@@H](NC(=O)[C@@H](Cc1c[nH]c2ccccc12)NC(=O)[C@H](NC(=O)[C@@H](CCCCN)NC(=O)[C@H]1CSSC[C@@H](NC(=O)[C@@H](CCCCN)NC(=O)[C@H](N)CCCNC(=N)N)C(=O)NCC(=O)N[C@@H](Cc2ccccc2)C(=O)N1)[C@H](C)O)C(N)=O [(56)] (H-[dR][dK][dC]GF[dC][dK][dT][dW][dV]-NH2; disulfide 3-6) | 727
CC(C)[C@@H](NC(=O)[C@@H](Cc1c[nH]c2ccccc12)NC(=O)[C@H](NC(=O)[C@@H](Cc1c[nH]c2ccccc12)NC(=O)[C@H]1CSSC[C@@H](N)C(=O)NCC(=O)NCC(=O)N1)[C@H](C)O)C(N)=O [(28)] (H-[dC]GG[dC][dW][dT][dW][dV]-NH2; disulfide 1-4) | 311
CC(C)[C@@H](NC(=O)[C@@H](Cc1c[nH]c2ccccc12)NC(=O)[C@H](NC(=O)[C@@H](Cc1c[nH]c2ccccc12)NC(=O)[C@H]1CSSC[C@@H](NC(=O)[C@@H](CCCCN)NC(=O)[C@H](N)CCCNC(=N)N)C(=O)N2CCC[C@@H]2C(=O)NCC(=O)N1)[C@H](C)O)C(N)=O [(15)] (H-[dR][dK][dC][dP]G[dC][dW][dT][dW][dV]-NH2; disulfide 3-6) | 485
CC(C)[C@@H](NC(=O)[C@@H](Cc1c[nH]c2ccccc12)NC(=O)[C@H](NC(=O)[C@H](Cc1c[nH]c2ccccc12)NC(=O)[C@H]1CSSC[C@@H](NC(=O)[C@@H](CCCCN)NC(=O)[C@H](N)CCCNC(=N)N)C(=O)NCC(=O)N[C@@H](Cc2ccccc2)C(=O)N1)[C@H](C)O)C(N)=O [(99)] (H-[dR][dK][dC]GF[dC]W[dT][dW][dV]-NH2; disulfide 3-6) | 3.1
CC[C@H](C)[C@@H]1NC(=O)[C@H]([C@@H](C)CC)NC(=O)[C@H](NC(=O)[C@@H](CCCCN)NC(=O)[C@H](N)CCCNC(=N)N)CSSC[C@H](C(=O)N[C@H](Cc2c[nH]c3ccccc23)C(=O)N[C@@H](C(=O)N[C@H](Cc2c[nH]c3ccccc23)C(=O)N[C@@H](C(N)=O)C(C)C)[C@H](C)O)NC1=O [(49)] (H-[dR][dK][dC]II[dC][dW][dT][dW][dV]-NH2; disulfide 3-6) | 7.1
CC(C)[C@@H](NC(=O)[C@@H](Cc1c[nH]c2ccccc12)NC(=O)[C@H](NC(=O)[C@@H](Cc1c[nH]c2ccccc12)NC(=O)[C@H]1CSSC[C@@H](NC(=O)[C@@H](CCCCN)NC(=O)[C@H](N)CCCNC(=N)N)C(=O)NCC(=O)N[C@H](C(C)C)C(=O)N1)[C@H](C)O)C(N)=O [(116)] (H-[dR][dK][dC]G[dV][dC][dW][dT][dW][dV]-NH2; disulfide 3-6) | 4.6
CC[C@H](C)[C@@H]1NC(=O)CNC(=O)CNC(=O)[C@H]([C@@H](C)CC)NC(=O)[C@H](CCCCN)NC(=O)[C@@H](N)CSSC[C@@H](C(N)=O)NC(=O)[C@H](Cc2c[nH]c3ccccc23)NC(=O)[C@H]([C@@H](C)O)NC(=O)[C@H](Cc2c[nH]c3ccccc23)NC1=O [(3)] (H-CKIGGIWTWC-NH2; disulfide 1-10) | 131
CC(C)[C@@H](NC(=O)[C@@H](Cc1c[nH]c2ccccc12)NC(=O)[C@H](NC(=O)[C@@H](Cc1c[nH]c2ccccc12)NC(=O)[C@H]1CSSC[C@@H](NC(=O)[C@@H](CCC(=O)O)NC(=O)[C@H](N)CCCNC(=N)N)C(=O)NCC(=O)N[C@@H](Cc2ccccc2)C(=O)N1)[C@H](C)O)C(N)=O [(112)] (H-[dR][dE][dC]GF[dC][dW][dT][dW][dV]-NH2; disulfide 3-6) | 236
CC(C)[C@H](NC(=O)[C@H](Cc1c[nH]c2ccccc12)NC(=O)[C@@H](NC(=O)[C@H](Cc1c[nH]c2ccccc12)NC(=O)[C@@H]1NC(=O)CNC(=O)CNC(=O)[C@@H](NC(=O)[C@H](CCCCN)NC(=O)[C@@H](N)CCCNC(=N)N)CSSC1(C)C)[C@@H](C)O)C(N)=O [(10)] (H-RKCGG[dPen]WTWV-NH2; disulfide 3-6) | 30
CC(C)[C@@H](NC(=O)[C@@H](Cc1c[nH]c2ccccc12)NC(=O)[C@H]1CCC(=O)NCCCC[C@@H](NC(=O)[C@H](N)CCCNC(=N)N)C(=O)N[C@@H]2CSSC[C@@H](NC(=O)[C@H](Cc3ccccc3)NC(=O)CNC2=O)C(=O)N[C@H](Cc2c[nH]c3ccccc23)C(=O)N1)C(N)=O [(106)] (H-[dR][dK][dC]GF[dC][dW][dE][dW][dV]-NH2; lactam 2-8; disulfide 3-6; N-terminus assumed) | 8
CC[C@@H](C)[C@@H](NC(=O)[C@@H](CCCCN)NC(=O)[C@H](N)CCCNC(=N)N)C(=O)NCC(=O)N[C@@H]1CSSC[C@H](C(=O)N[C@H](Cc2c[nH]c3ccccc23)C(=O)N[C@@H](C(N)=O)C(C)C)NC(=O)[C@@H](Cc2c[nH]c3ccccc23)NC(=O)[C@@H]([C@H](C)CC)NC1=O [(107)] (H-[dR][dK][dI]G[dC][dI][dW][dC][dW][dV]-NH2; disulfide 5-8) | 8
CC(C)[C@@H](NC(=O)[C@@H](Cc1c[nH]c2ccccc12)NC(=O)[C@H](NC(=O)[C@@H](Cc1c[nH]c2ccccc12)NC(=O)[C@H]1CSSC[C@@H](NC(=O)[C@@H](CCCCN)NC(=O)[C@H](N)CCCNC(=N)N)C(=O)NCC(=O)N[C@@H](Cc2ccc(O)cc2)C(=O)N1)[C@H](C)O)C(N)=O [(87)] (H-[dR][dK][dC]GY[dC][dW][dT][dW][dV]-NH2; disulfide 3-6) | 5.7
CC(C)[C@@H](NC(=O)[C@@H](Cc1c[nH]c2ccccc12)NC(=O)[C@H](NC(=O)[C@@H](Cc1ccc2ccccc2c1)NC(=O)[C@H]1CSSC[C@@H](NC(=O)[C@@H](CCCCN)NC(=O)[C@H](N)CCCNC(=N)N)C(=O)NCC(=O)N[C@@H](Cc2ccccc2)C(=O)N1)[C@H](C)O)C(N)=O [(51)] (H-[dR][dK][dC]GF[dC][d2Nal][dT][dW][dV]-NH2; disulfide 3-6) | 7.7
CC(C)[C@@H](NC(=O)[C@@H](Cc1c[nH]c2ccccc12)NC(=O)[C@H](NC(=O)[C@@H](Cc1c[nH]c2ccccc12)NC(=O)[C@H]1CSSC[C@@H](NC(=O)[C@@H](CCCCN)NC(=O)[C@H](N)CCCNC(=N)N)C(=O)NCC(=O)N2Cc3ccccc3C[C@H]2C(=O)N1)[C@H](C)O)C(N)=O [(86)] (H-[dR][dK][dC]G[Tic][dC][dW][dT][dW][dV]-NH2; disulfide 3-6) | 83.4
CC(C)[C@@H](NC(=O)[C@@H](Cc1c[nH]c2ccccc12)NC(=O)[C@H](NC(=O)[C@@H](Cc1c[nH]c2ccccc12)NC(=O)[C@H]1CSSC[C@@H](NC(=O)[C@@H](CCCCN)NC(=O)[C@H](N)CC(=O)O)C(=O)NCC(=O)N[C@@H](Cc2ccccc2)C(=O)N1)[C@H](C)O)C(N)=O [(117)] (H-[dD][dK][dC]GF[dC][dW][dT][dW][dV]-NH2; disulfide 3-6) | 238
C[C@H](O)[C@H]1NC(=O)[C@@H](Cc2c[nH]c3ccccc23)NC(=O)[C@H]2CSSC[C@@H](NC(=O)[C@H](NC(=O)[C@H](N)CCCNC(=N)N)CCCCNC(=O)CC[C@H](C(N)=O)NC(=O)[C@@H](Cc3c[nH]c4ccccc34)NC1=O)C(=O)NCC(=O)N[C@@H](Cc1ccccc1)C(=O)N2 [(105)] (H-[dR][dK][dC]GF[dC][dW][dT][dW][dE]-NH2; lactam 2-10; disulfide 3-6; N-terminus assumed) | 97.8
CC(C)[C@@H](NC(=O)[C@@H](Cc1c[nH]c2ccccc12)NC(=O)[C@@H](NC(=O)[C@@H](Cc1c[nH]c2ccccc12)NC(=O)[C@H]1CSSC[C@@H](NC(=O)[C@@H](CCCCN)NC(=O)[C@H](N)CCCNC(=N)N)C(=O)NCC(=O)N[C@@H](Cc2ccccc2)C(=O)N1)[C@@H](C)O)C(N)=O [(98)] (H-[dR][dK][dC]GF[dC][dW]T[dW][dV]-NH2; disulfide 3-6) | 28.7
CC(C)[C@@H](NC(=O)[C@@H](Cc1c[nH]c2ccccc12)NC(=O)[C@H](NC(=O)[C@@H](Cc1c[nH]c2ccccc12)NC(=O)[C@H]1CSSC[C@@H](NC(=O)[C@@H](CCCCN)NC(=O)[C@H](N)CCCNC(=N)N)C(=O)NCC(=O)N[C@@H](Cc2ccc3ccccc3c2)C(=O)N1)[C@H](C)O)C(N)=O [(73)] (H-[dR][dK][dC]G[2Nal][dC][dW][dT][dW][dV]-NH2; disulfide 3-6) | 3.2
CC(C)[C@@H](NC(=O)[C@@H](Cc1c[nH]c2ccccc12)NC(=O)[C@H](NC(=O)[C@@H](Cc1c[nH]c2ccccc12)NC(=O)[C@H]1CSSC[C@@H](NC(=O)[C@@H](CCCCN)NC(=O)[C@@H](N)CCCNC(=N)N)C(=O)NCC(=O)N[C@@H](Cc2ccccc2)C(=O)N1)[C@H](C)O)C(N)=O [(101)] (H-R[dK][dC]GF[dC][dW][dT][dW][dV]-NH2; disulfide 3-6) | 33.9
CC[C@H](C)[C@@H]1NC(=O)[C@@H](NC(=O)[C@@H](N)CCCNC(=N)N)CSSC[C@@H](C(=O)N[C@@H](Cc2c[nH]c3ccccc23)C(=O)N[C@H](C(=O)N[C@@H](Cc2c[nH]c3ccccc23)C(=O)N[C@H](C(N)=O)C(C)C)[C@@H](C)O)NC(=O)CNC(=O)CNC1=O [(5)] (H-RCIGGCWTWV-NH2; disulfide 2-6) | 36
